Measurements reported in patent US12285408B2, “Methods and compositions for the treatment of snake bite” (priority 2021, dated 2025).

Legend:
[1] = Water solubility when preparing stocks; type: physicochemical
Echis ocellatus venom [2] = assay: Murine 'challenge then treat' model of envenoming, intraperitoneal; type: in vivo, CD-1 mice
Experimental: FIG. 18. […] Kaplan-Meier survival graphs for experimental animals (n=5) that received E. ocellatus venom (intraperitoneal administration of 90 μg; 5×iv. LD50), followed by delayed drug treatment intraperitoneally 15 mins later. […] For the DMPS and antivenom (D+AV) group, experimental animals received 120 μg of DMPS 15 mins after venom, and intravenous antivenom (168 μl of the E. ocellatus monospecific antivenom EchiTAbG, MicroPharm Ltd, UK) 1 hr after venom delivery. All DMPS data presented is taken from Albulescu et al. “Preclinical validation of a repurposed metal chelator as an early-intervention therapeutic for hemotoxic snakebite. Sci. Trans. Med. 12, eaay8314 (2020)”).
To better mimic a snakebite scenario, mice were initially challenged with venom, followed by the delayed administration of a single drug or a combination of drugs, as previously described. The venom challenge dose was increased to ensure complete lethality in the venom-only control group occurred within 4-5 hours. Groups of five male 18-22 g CD-1 mice (Charles River, UK) were injected with venom (100 μl final volume), followed by a drug dose that was scaled up accordingly after 15 min. […] Experimental animals were monitored for 24 h, with humane end points for euthanasia, and data recording, performed as described above. […]

Echis ocellatus venom [3] = conditions: previous work, same preclinical model; cited from earlier work
[4] = Tolerability of oral DMPS; type: in vivo

SMILES | water solubility [1] | survival (Echis ocellatus venom [2]; 90 μg venom i.p. (5×i.v. LD50), 120 μg of each drug i.p. 15 min later, 24 h monitoring, n=5) | adverse effects in drug-only controls (Echis ocellatus venom [2]; drug only, i.p., 24 hour monitoring) | time for which lethality was prevented (Echis ocellatus venom [3]) [h] | oral dose that is well tolerated and safe [4]
CCc1c(C(=O)C(N)=O)c2c(OCC(=O)O)cccc2n1Cc1ccccc1 [varespladib] | water insolubility |  |  |  | 
O=S(=O)(O)CC(S)CS (centres unmarked) [DMPS, 2,3-dimercapto-1-propanesulfonic acid] |  | only two of the five experimental animals survived | None of the animals receiving DMPS alone displayed any adverse effects | ~8 | up to 1,500 mg
